The source of these data is patent US7531195B2, “Schisandrin B preparation” (priority 2005, dated 2009).

Marks after values point to notes of the source that are not given here.

Holding throughout (format): in vivo, rat
For experiment [1], the system named is Myocardial Mitochondria. Nature of the experiment: Myocardial mitochondrial ATP generation capacity, young male and female rats. Conditions: 35 days. Here is the method:
Male/Female adult Sprague-Dawley rats (˜10 weeks old) were maintained under a 12-h dark/light cycle at about 22° C. and allowed food and water ad libitum. Animals were randomly divided into groups, with at least 5 animals in each. In the pretreatment groups, rats were treated intragastrically with (−) Schisandrin B at a daily dose of 1 or 10 mg/kg for 35 days. Control animals received oil only (10 ml/kg). Twenty-four hours following the last dosing, hearts were isolated from control or drug-pretreated rats and then subjected to Langendorff perfusion as described below.
Myocardial tissue samples were rinsed with ice-cold isotonic buffer (50 mM Tris, 0.32 M sucrose, 1 mM Na2EDTA, 0.2 mg/ml soybean trypsin inhibitor, 0.2 mg/ml bacitracine, 0.16 mg/ml benzamidine). Tissue homogenates were prepared by homogenizing 0.8 g of myocardial tissue in 8 ml ice-cold isotonic buffer and the homogenates were used for the preparation of mitochondrial fractions by differential centrifugation, as described in Chiu and Ko (2004). The mitochondrial pellets were resuspended in 1.5 ml of isotonic buffer containing 150 μl of 2 mg/ml soybean trypsin inhibitor and constituted the mitochondrial fractions.
Myocardial mitochondrial ATP generation capacity was measured by incubating 200 μl of nucleus-free tissue homogenate with 200 μl of substrate solution (containing 100 mM glutamate and 34 mM malate) and 20 μl ADP (2.3 mM) for 10 min at 37° C., and the ATP level were measured using an assay kit from Sigma Chemical Co. (St. Louis, Mo., USA). LDH activity was spectrophotometrically measured as described (Yim and Ko 1999).

In experiment [2] the test system is mitochondria of brain, heart, liver and skeletal muscle. Description: Mitochondrial antioxidant components in tissues of young adult and middle-aged rats. To be noted: 10 mg/kg/day x 15, range among tissues. Here is the method:
(§1) Young adult (8-10 week-old) and middle-aged (12-14 month-old retired breeder) female Sprague-Dawley rats were maintained under a 12-h dark/light cycle at about 22° C. and allowed food and water ad libitum. Experimental protocols were approved by the Research Practice Committee at the Hong Kong University of Science & Technology, Hong Kong. Animals were randomly divided into groups, with 5 animals in each. In the treatment groups, rats were intragastrically administered with Sch B (dissolved/suspended in olive oil) at a daily dose of 10 mg/kg for 15 days. The daily dose is approximated to 1.14 mg/kg for humans after adjusting the inter-species difference in drug distribution in the body. Untreated control animals received olive oil only. Twenty-four hours after the last dosing, animals were sacrificed by decapitation and the whole brain, heart ventricular, liver and skeletal muscle (hind limb) tissues were excised and subjected to biochemical analysis. To investigate the effect of (−) Sch B on myocardial ischemia-reperfusion (1-R) injury, rats were intragastrically administered with (−) Sch B at a daily dose of 10 mg/kg for 35 days. Untreated control animals received olive oil only. Twenty-four hours after the last dosing, hearts were isolated from pentobarbital-anesthetized animals and subjected to I-R experiment.
Mitochondrial pellets were prepared from tissue homogenates by centrifugation at 800×g at 4° C. for 30 min, with purity being determined by measuring the relative specific activities of succinate dehydrogenase and lactate dehydrogenase (LDH) in the supernatant and mitochondrial pellet. Mitochondrial pellets were then resuspended in 1 ml of the respective homogenizing buffer used for various tissues and constituted the mitochondrial fractions. The protein concentration of mitochondrial fractions was determined using a Bio-Rad protein assay kit.
Aliquots (200 μl) of mitochondrial fractions were used for measuring mitochondrial glutathione (GSH) and α-tocopherol (α-TOC) levels by an enzymatic method and HPLC method, respectively, using GSH and α-TOC as standards. Se-glutathione peroxidase (GPX) activity was measured. Mn-superoxide dismutase (SOD) activity was measured by monitoring the […] of cytochrome c caused by superoxide radicals generated from the xanthine oxidase-xanthine reaction.

For experiment [3] the test system is unchanged. Nature of the experiment: Ca2+-induced mitochondrial permeability transition (MPT) in tissues of young adult and middle-aged rats. Here is the method:
as §1, with “To investigate the effect of (−) Sch B on myocardial ischemia-reperfusion (1-R) injury, rats were intragastrically administered with (−) Sch B at a daily dose of 10 mg/kg for 35 days. Untreated control animals received olive oil only. Twenty-four hours after the last dosing, hearts were isolated from pentobarbital-anesthetized animals and subjected to I-R experiment.” left out
Tissue homogenates were prepared as described above. […] An aliquot (1.6 ml) of mitochondrial sample (0.5 mg protein/ml) was prepared by mixing mitochondrial fraction with incubation buffer (125 mM sucrose, 65 mM KCl, 10 mM Hepes, pH 7.2, 5 mM succinate (freshly prepared) and 5 μM rotenone (freshly prepared). Aliquots (200 μl) of mitochondrial sample were mixed with 10 μl of cyclosporin A (5 μM in 0.5% ethanol final concentration) or incubation buffer. The mixtures were incubated at 30° C. for 5 min. An aliquot (10 μl) of calcium chloride solution (1 μM final concentration) was then added, and the mixtures were incubated at 30° C. for 5 min. Aliquots (180 μl) of the mixtures were added into 96-well micro-titer plate, and the initial absorbance of the mixtures at 520 nm was monitored for 5 min at 30° C. The swelling reaction was then started by adding 20 μl of K3PO4 (0.5 mM, pH 7.2), and the absorbance at 520 nm of the reaction mixtures was read every 2 min for 30 min at 30° C., using Victor V^2 Multi-Label Counter. […]

[4] abbreviates: female rats, 1 mg/kg daily oral.
Setting [5] is: female rats, 10 mg/kg daily oral.

In the case of `COc1cc2c(c(OC)c1OC)-c1c(cc3c(c1OC)OCO3)CC(C)C(C)C2` (single isomer, unassigned; (-)) [(−) Sch B, (−) Schisandrin B], in experiment [1] (setting [4]), the “ATP Generation, percent increase vs untreated control” value (from here on “ATP Generation, percent increase”) is reported as “(26%)” and the “ATP generation” value is recorded as 4.11 ± 0.19^b μmol/min/mg protein. Besides, in experiment [1] (setting [5]), the “ATP Generation, percent increase” value was “(78%)” and the “ATP generation” value was 5.79 ± 0.37^b μmol/min/mg protein. In addition, the “ATP Generation, percent increase” value in experiment [1] (male rats, 1 mg/kg daily oral) is “(99%)”. In addition, in experiment [1] (male rats, 10 mg/kg daily oral), the “ATP Generation, percent increase” value is “(141%)” and the “ATP generation” value was 6.74 ± 0.37^a μmol/min/mg protein. For the same molecule, in experiment [2], the “extent of stimulation of mitochondrial GPX activity” value is reported as 21-41%, the “extent of stimulation of mitochondrial GSH level” value is 21-29%, the “extent of stimulation of mitochondrial SOD activity” value is on record as 19-34% and the “extent of stimulation of mitochondrial α-TOC level” value is given as 19-34%. In experiment [3] (middle-aged rats, all tissues except liver, range among tissues), the “extent of inhibition of sensitivity to Ca2+-induced MPT” value is 15-29%. Moreover, the “sensitivity to Ca2+-induced MPT in liver” value in experiment [3] (middle-aged rats, liver) is given as “did not show detectable change”. In experiment [3] (young adult rat tissues, 10 mg/kg/day x 15, range among tissues), the “decrease of sensitivity to Ca2+-induced MPT” value is recorded as 15-48%.
